Literature values in patent US8377979B2, “Pharmaceutical formulation containing phenytoin sodium and magnesium stearate” (Taro Pharmaceuticals North America, Inc., priority 2005, dated 2013).

Assays:
[1] = gastrointestinal pH range of 1 to 8
[2] = man, oral administration

**Q.** Which solubility [1] does the source give for `O=C1NC(=O)C(c2ccccc2)(c2ccccc2)N1` [phenytoin, 5,5-diphenyl-2,4-imidazolidinedione] here?
**A.** practically insoluble

**Q.** And the “plasma half-life, average” value [2]?
**A.** 22 h
